According to US6485975B1, “Method for regenerating viable and fertile citrus plants by tissue culture from explants” (Council of Scientific and Industrial Research, priority 2000, dated 2002):
Values joined by “and” are separate entries in the source; they are usually repeats but may differ in a detail not shown here. Identical values can stand only once.

Legend:
[1] = test system: meristem-regenerated shoots of Citrus aurantifolia; assay: Root induction in meristem-regenerated shoots of Citrus aurantifolia; type: cell-based; details: 0.25 mg l^-1 of the auxin, used with 1 mg l^-1 chlorogenic acid
Excerpt: (§1) h) rooting of the isolated well-developed shoots of C. aurantifolia to the extent of 100% in 15 days, and of C. sinensis to the extent of 90% in 25 days, in agarified media-E and F respectively.
The meristem-regenerated well-developed shoots of C. aurantifolia easily rooted in medium-E (Table I) selected on the basis of the formulations used earlier during the investigations on Citrus tissue culture in this Laboratory (Chaturvedi, H. C. 1979. Tissue culture of economic plants. In: Progress in Plant Research. Eds. T. N. Khoshoo and P. K. K. Nair, Today and Tomorrow's Publisher, New Delhi, Vol.1, pp.265-288; Chaturvedi, H. C. and Sharma, A. K. 1988. Citrus tissue culture. In: Proc. Natl. Seminar on Plant Tissue Culture, I.C.A.R., New Delhi, pp.36-46). The basic differences of the root inducing media from the shoot proliferation media of Citrus are, comparatively lower concentrations of nitrogen, calcium and magnesium in the former. […] Even its shoots raised from seedling explants have been reported to be intractable-to-root in vitro (Duran-vila, N., Ortega, V. and Navarro, L. 1989. Morphogenesis and tissue cultures of three citrus species. Plant Cell, Tissue and Organ Culture, 16: 123-133).

[2] = test system: meristem-regenerated shoots of C. sinensis; assay: Root induction in meristem-regenerated shoots of C. sinensis; type: cell-based, Citrus sinensis; details: same treatments as for C. aurantifolia (0.25 mg l^-1 auxin, 1 mg l^-1 chlorogenic acid)
Excerpt: as §1
The medium-E, which was found effective for inducing desirable rooting in a number of Citrus species, including its rootstocks, when was found deficient for promoting root induction in the presence of multiple combinations of auxins, viz., IAA. IPA, IBA and NAA without or with phenolic acids, namely, phloroglucinol and chlorogenic acid, it was variously modified. The modifications included, increase in the concentrations of thiamine-HCl, pyridoxine-HCl and nicotinic acid to 2.5, 0.5 and 0.5 mg 1^−1, respectively, addition of some other root promoting vitamins, like, riboflavin, folic acid and d-biotin at the concentration of 0.1 mg 1^−1 each as also 15 mg 1^−1 L-arginine.
The rooting responses of well-developed isolated shoots of C. sinensis to various auxins used without and with phenolic acids employing the medium-E (Table I) devoid of auxins and the phenolic acid as the basal medium, are presented in Table 3. A combination of three auxins, namely, IAA, NAA and IPA along with a phenolic acid, namely, chlorogenic acid or phloroglucinol was essential for root induction.

[3] = test system: isolated shoots of Citrus aurantifolia; assay: Proliferation of isolated shoots of Citrus aurantifolia; type: cell-based; details: for Condition of shoots / Growth of regenerated shoots Length in cm: 30 days; for No. of off-shoots regenerated: culture period 30 days, mean of 5 cultures ± S.E.
Excerpt: (§2) g) proliferating the meristem-regenerated 1.5-cm-long shoots of C. aurantifolia and C. sinensis by repeated subculture in medium-A and medium-B, respectively to obtain well-developed shoots to the extent of an average 10 shoots and 6 shoots, respectively, within 4 subcultures of 30 days each,
(§3) Proliferation of Isolated Shoots Obtained from Regenerated Nodal Stem Segments of Mature Field-grown Trees of Citrus aurantifolis and C. sinensis
(§4) Proliferation of isolated shoots was obtained in presence of BAP and an auxin, LAA or NAA employing the medium-A (Table I) for C. aurantifolia, and medium-B (Table I) for C. sinensis, but not vice-versa, where both media A and B, devoid of growth hormones comprised the basal media. […] Responses of the isolated shoots to some selected combinations of BAP with IAA or NAA are given in the Table 1, which lead to the selection of specific nutrient media for optimum proliferation of shoots of these two Citrus species.
The maximum number of offshoots produced per explant of a shoot tip of C. aurantifolia was 7 in 0.75 mg 1^−1 BAP and 0.25 mg 1^−1 IAA, however, the shoots not only were restricted in growth, but also substantial intervening callus was formed. Similarly, in the concentrations of 0.5 and 1.0 mg 1^−1 BAP, particularly the second aspect of response remained equally prominent, i.e., growth restriction of offshoots and intervening callusing during their differentiation. […] Thus, the 0.25 mg 1^−1 concentration of both BAP and IAA was selected comprising the medium-A for proliferation of isolated shoots originally regenerated from nodal stem segments of mature field-grown trees of C. aurantifolia.

[4] = test system: isolated shoots of C. sinensis; assay: Proliferation of isolated shoots of C. sinensis; type: cell-based, Citrus sinensis; details: for Condition of shoots / Growth of regenerated shoots Length in cm: 30 days; for No. of off-shoots regenerated: culture period 30 days, mean of 5 cultures ± S.E.
Excerpt: as §2, §3, §4
Likewise, 0.25 mg 1^−1 concentration of BAP and 0.5 mg 1^−1 of NAA were selected comprising the medium-B for optimum proliferation of shoots of C. sinensis in view of the same two criteria, viz., moderately high number of offshoot production with good growth and their differentiation without any intervening callusing.

[5] = test system: excised shoot meristems of Citrus aurantifolia and C. sinensis; assay: Growth of excised shoot meristems, both Citrus species not distinguished; type: cell-based
Excerpt: e) excising the meristem domes along with youngest 2-3 leaf primordia ranging in length between 0.2-0.5 mm from the aseptically grown shoots followed by their culture on the liquid medium-C under the same controlled light and temperature conditions as in step (c) at least for a period of 15 days to let them attain a length of ca. 8 mm, f) subculturing the meristem-regenerated shoots on filter paper bridge employing liquid medium-D in order to obtain healthy shoots of an average length of about 1.5 cm without intervening callusing within a period of 20-25 days, Since for growth, an excised shoot meristem may require exogenous supply of mainly three growth hormones, viz., a cytokinin, an auxin and a gibberellin, these were provided individually at 3 concentrations (mg 1^−1) each and in certain combinations as given below using the medium-C (Table I) devoid of IAA and GA as the basal medium: 0.1 BAP; 0.25 BAP; 0.5 BAP; 0.1 IAA; 0.25 IAA; 0.5 IAA: 5 GA; 10 GA; 15 GA; 0.1 BAP+0.1 IAA; 0.25 BAP+0.1 IAA; 0.5 BAP+0.1 IAA; 5 GA+0.1 IAA; 10 GA+0.1 IAA and 15 GA+0.1 IAA. […] In the next step, on the basis of the responses obtained, shoot meristems were cultured in all the afore-said 3 concentrations of BAP (0.1, 0.25 and 0.5 mg 1^−1) or GA (5, 10 and 15 mg 1^−1) along with 0.1 mg 1^−1 IAA. […] In this treatment, growth of meristem on nutrient agar as well as in liquid medium using filter paper bridge was compared. Shoot meristems grew far better on filter paper bridge than on nutrient agar in the same treatment (table 3). […] Higher or lower than 0.1 mg 1^−1 concentrations of BAP were not conducive to normal growth of shoot meristems.

[6] = BAP (0.1, 0.25, 0.5 mg l^-1) or GA (5, 10, 15 mg l^-1) along with 0.1 mg l^-1 IAA
[7] = individually at lower concentrations: IAA 0.1 mg l^-1 or GA 5 mg l^-1

Structure (SMILES): O=C(O)Cc1cccc2ccccc12 [NAA, α-naphthalene-acetic acid]
- rooting [1]: Hundred percent
- rooting [2]: did not root

Structure (SMILES): c1ccc(CNc2ncnc3nc[nH]c23)cc1 [BAP, 6-benzylaminopurine]
- Condition of shoots ([3]; BAP 0.1 mg l^-1 with 0.25 IAA): A few well-develop-
- Growth of regenerated shoots Length in cm ([3]; BAP 0.1 mg l^-1 with 0.25 IAA): 1.44 ± 0.14 cm
- No. of off-shoots regenerated ([3]; BAP 0.1 mg l^-1 with 0.25 IAA): 3.6 ± 0.40
- Condition of shoots ([3]; BAP 0.25 mg l^-1 with 0.25 IAA): Well-developed
- Growth of regenerated shoots Length in cm ([3]; BAP 0.25 mg l^-1 with 0.25 IAA): 1.40 ± 0.13 cm
- No. of off-shoots regenerated ([3]; BAP 0.25 mg l^-1 with 0.25 IAA): 5.8 and 5.8 ± 0.58
- Growth of regenerated shoots Length in cm ([3]; BAP 0.5 mg l^-1 with 0.25 IAA): 0.99 ± 0.10 cm
- No. of off-shoots regenerated ([3]; BAP 0.5 mg l^-1 with 0.25 IAA): 5.4 ± 1.02
- Growth of regenerated shoots Length in cm ([3]; BAP 0.75 mg l^-1 with 0.25 IAA): 0.86 ± 0.08 cm
- No. of off-shoots regenerated ([3]; BAP 0.75 mg l^-1 with 0.25 IAA): 7 and 7.0 ± 0.44
- Growth of regenerated shoots Length in cm ([3]; BAP 1.0 mg l^-1 with 0.25 IAA): 0.76 ± 0.10 cm
- No. of off-shoots regenerated ([3]; BAP 1.0 mg l^-1 with 0.25 IAA): 5.6 ± 1.40
- Condition of shoots ([4]; BAP 0.1 mg l^-1 with 0.5 NAA): A few well-
- Growth of regenerated shoots Length in cm ([4]; BAP 0.1 mg l^-1 with 0.5 NAA): 1.16 ± 0.27 cm
- No. of off-shoots regenerated ([4]; BAP 0.1 mg l^-1 with 0.5 NAA): 1.8 ± 0.37
- Condition of shoots ([4]; BAP 0.25 mg l^-1 with 0.5 NAA): Well-developed
- Growth of regenerated shoots Length in cm ([4]; BAP 0.25 mg l^-1 with 0.5 NAA): 1.65 ± 0.20 cm
- No. of off-shoots regenerated ([4]; BAP 0.25 mg l^-1 with 0.5 NAA): 2.6 and 2.6 ± 0.24
- Condition of shoots ([4]; BAP 0.5 mg l^-1 with 0.5 NAA): Well-developed
- Growth of regenerated shoots Length in cm ([4]; BAP 0.5 mg l^-1 with 0.5 NAA): 1.08 ± 0.12 cm
- No. of off-shoots regenerated ([4]; BAP 0.5 mg l^-1 with 0.5 NAA): 3.4 ± 0.44
- Growth of regenerated shoots Length in cm ([4]; BAP 0.75 mg l^-1 with 0.5 NAA): 0.78 ± 0.10 cm
- No. of off-shoots regenerated ([4]; BAP 0.75 mg l^-1 with 0.5 NAA): 3.2 ± 0.73
- Growth of regenerated shoots Length in cm ([4]; BAP 1.0 mg l^-1 with 0.5 NAA): 0.75 ± 0.08 cm
- No. of off-shoots regenerated ([4]; BAP 1.0 mg l^-1 with 0.5 NAA): 2.0 ± 0.31
- response of shoot meristems [5, 6]: became abnormally thick
- delay of necrosis of shoot meristem ([5]; BAP individually, particularly 0.1 mg l^-1): 10 to 15 days

Structure (SMILES): O=C(O)CCc1c[nH]c2ccccc12 [IPA, indole-3-propionic acid]
- rooting [1]: Hundred percent
- rooting [2]: did not root

Structure (SMILES): O=C(O)Cc1c[nH]c2ccccc12 [IAA, indole-3-acetic acid]
- rooting [1]: Hundred percent
- rooting [2]: did not root
- response of shoot meristems [5, 7]: remained fresh with a little increase in their length

Structure (SMILES): C=C1C[C@]23C[C@@]1(O)CC[C@H]2[C@@]12C=C[C@H](O)[C@@](C)(C(=O)O1)[C@H]2[C@@H]3C(=O)O [GA, gibberellic acid]
- response of shoot meristems [5, 6]: registered some growth
- response of shoot meristems [5, 7]: remained fresh with a little increase in their length

Structure (SMILES): O=C(O)CCCc1c[nH]c2ccccc12 [IBA, indole-3-butyric acid]
- rooting [1]: Hundred percent
- rooting [2]: did not root
